This is an account of results in article PMC12278645, “Design, synthesis, and antitumor activity of novel thioheterocyclic nucleoside derivatives by suppressing the c-MYC pathway” (Acta Pharmaceutica Sinica. B, 2025).

Series [1] relates to HCT116 cells. Briefly: Cell apoptosis (Annexin V-FITC/PI, flow cytometry). The class given is cell-based, human. The conditions noted are these: 48 h. As for the experimental part: HCT116 cells were seeded in 6-well plates (4 × 10^5 cells/well). The following day, defined concentrations of compound 33a or 36b were added to the wells for 48 h at 37 °C with 5% CO2. The cells were collected and stained with Annexin V-FITC and PI for 15 min at room temperature. Apoptotic cells were analyzed with flow cytometry (BD Bioscience).

Series [2] concerns HCT116 cells. Briefly: Transwell invasion assay. It is filed as cell-based, human. To be noted: 24 h. The method, then: A transwell chamber (24-well) (Corning, New York, USA) was coated with Matrigel (BD Biosciences, New Jersey, USA), and 1 × 10^5 cells per well were seeded in the upper chamber in serum-free medium and treated with defined doses of compound 33a or 36b. The complete medium was placed in the lower chamber. After 24 h, the cells penetrating through the pores were stained with 0.1% crystal violet solution and observed with a Leica DMIL fluorescence microscope (Leica Microsystems).

Series [3] relates to HCT116 cells. Briefly: Autophagy (Western blot of P62, LC3, Beclin1; TEM; MDC staining). To be noted: 48 h. The class given is cell-based, human. As for the experimental part:
(§1) Whole protein was extracted and separated by polyacrylamide gel electrophoresis (SDS-PAGE) and transferred onto nitrocellulose membranes. Membranes were blotted with CDK1, Cyclin B1, Caspase-3, BAX, BCL-2, PARP-1, γ-H2AX, P53, ATF4, CHOP, PERK, ATP6, LC3, Beclin1, P62, β-Catenin, c-MYC, MAX, UPP1, GAPDH, β-Actin, and β-Tubulin primary antibodies. Protein band analyses were performed with ImageJ software and protein expression levels were presented as a percentage difference compared to control.
(Immunoblotting shows a protein as a band on a membrane.)

Series [4] concerns CT26 (mouse colon cancer). Briefly: CCK-8 anti-proliferation assay, CT26. It is filed as cell-based. To be noted: Mus musculus, CT26; CCK-8, 48 h, mean ± SD. As for the experimental part: (§2) To evaluate their spectrum of anti-proliferative activity, further CCK-8 assays were carried out with the selected compounds (5a/5b, 8a/8b, 33a/33b, and 36a/36b) on MCF-7 (human breast cancer), A375 (human malignant melanoma), DU145 (human prostate cancer), and CT26 (mouse colon cancer) cell lines. The selected compounds had moderate to potent antitumor activity on the four cell lines, indicating their broad spectrum of antitumor activity (Table 5).
(§3) MCF-7, A375, and HeLa cells were cultured in DMEM, HCT116 cells were cultured in McCoy's 5A medium, and DU145 and CT26 were cultured in RPMI 1640 with 10% FBS, 1% penicillin-streptomycin solution (10,000 U/mL penicillin and 10,000 μg/mL streptomycin) at 37 °C under 5% CO2. The cells were seeded in 96-well plates (4 × 10^3 cells/well) overnight and then treated with various concentrations (1–50 μmol/L) of the compound. After 48 h, the cell viability was measured by CCK-8 assay. The absorbance of each well was measured using a microplate reader (Multiskan FC, Thermo Fisher Scientific, Massachusetts, USA) at 450 nm wavelength. Assays were performed in triplicate. Compound concentrations that inhibited cell growth by 50% (IC50) were calculated from the dose–response curves of each cell line. Data are mean ± SD values from three independent experiments.
For orientation: Tetrazolium dyes change colour on reduction, which living cells bring about.

The test system of a further series is HeLa cells. Briefly: CCK-8 anti-proliferation assay, HeLa. The class given is cell-based, human. To be noted: Homo sapiens, HeLa, 48 h, CCK-8, 48 h, mean ± SD, three independent experiments. As for the experimental part: Tumor cell anti-proliferation activities were determined by cell counting kit-8 (CCK-8) assay.
as §3

Series [5] relates to DU145 (human prostate cancer). Briefly: CCK-8 anti-proliferation assay, DU145. The class given is cell-based. The conditions noted are these: Homo sapiens, DU-145; CCK-8, 48 h, mean ± SD. As for the experimental part:
as §2, §3

Another series can be described thus: Pharmacokinetic analysis. The class given is in vivo, Sprague–Dawley rats. The conditions noted are these: for clearance / half-life / Vd / Cmax / Tmax / AUC(0-inf): male, Sprague-Dawley, plasma; for clearance / half-life / Vd / Cmax / Tmax / AUC0-∞: rat; for Vd: read-out: Vss; for AUC(0-inf): heading: AUC0-∞, Table S5, rat. As for the experimental part:
All animal studies and procedures were approved by the Animal Ethics Committee of College of Chemistry and Chemical Engineering, Henan Normal University, China. Male Sprague–Dawley rats (220 ± 10 g, Shanghai Yuanxin Biological Co., Ltd., Shanghai, China) were used to evaluate drug pharmacokinetic properties. Briefly, compound 33a or 36b was dissolved in PBS containing 10% DMSO and 20% castor oil. Rats were treated with 1 mg/kg of compound 33a or 36b for intravenous injection and 2 mg/kg for oral intragastric administration. Blood samples were collected from each rat at 0, 0.083, 0.25, 0.5, 1, 2, 4, 6, 8, 12, and 24 h. Plasma was isolated from the blood samples by centrifugation (1200 rpm, 4 °C, 10 min. ThermoFisher Scientific, Thermo Electron LED GmbH, Zweigniederlassung Osterode Am Kalkberg, Osterode am Harz, Germany). Sample concentrations were determined by LC-MS/MS (API 4000, AB SCIEX) based on a standard curve. All data were calculated by Excel software.

The test system of series [6] is HCT116 cells. Briefly: Wound healing assay. It is filed as cell-based, human. To be noted: 24 h. As for the experimental part:
HCT116 cells were seeded in 6-well plates (6 × 10^5 cells/well) to full confluence and then an artificial wound was created in the cell monolayer using a 200 μl pipette tip. Images of wound closure were captured at 0 and 24 h using a Leica DMIL fluorescence microscope (Leica Microsystems). The percentage of wound closure was calculated using Image J software.

Series [7] deals with c-MYC signal path in HCT116 cells. Briefly: Western blot of c-MYC and downstream proteins. It is filed as cell-based, human. The method, then:
as §1

In another series the target is c-MYC (Homo sapiens, UniProt P01106). Briefly: Drug affinity responsive target stability (DARTS) assay. The class given is binding. The arrangement: HCT116 cells were lysed with mammalian protein extraction reagent (M-PER); endogenous in cells; host or cells: HCT116. The conditions noted are these: HCT116 lysate, pronase, 0-640 μmol/L. The method, then:
HCT116 cells were lysed with mammalian protein extraction reagent (M-PER), centrifuged, and quantified by BCA protein assay. […] Proteolysis was performed by adding pronase solution at a ratio of 1:3200 for 30 min at room temperature and then stopped by adding SDS-PAGE sample loading buffer and boiling at 100 °C for 5 min. c-MYC protein was analyzed by Western blot.

In series [8] the test system is A375 (human malignant melanoma). Briefly: CCK-8 anti-proliferation assay, A375. It is filed as cell-based. The conditions noted are these: Homo sapiens, A-375; CCK-8, 48 h, mean ± SD. As for the experimental part:
as §2, §3

Chain of c-MYC (P01106 whole entry): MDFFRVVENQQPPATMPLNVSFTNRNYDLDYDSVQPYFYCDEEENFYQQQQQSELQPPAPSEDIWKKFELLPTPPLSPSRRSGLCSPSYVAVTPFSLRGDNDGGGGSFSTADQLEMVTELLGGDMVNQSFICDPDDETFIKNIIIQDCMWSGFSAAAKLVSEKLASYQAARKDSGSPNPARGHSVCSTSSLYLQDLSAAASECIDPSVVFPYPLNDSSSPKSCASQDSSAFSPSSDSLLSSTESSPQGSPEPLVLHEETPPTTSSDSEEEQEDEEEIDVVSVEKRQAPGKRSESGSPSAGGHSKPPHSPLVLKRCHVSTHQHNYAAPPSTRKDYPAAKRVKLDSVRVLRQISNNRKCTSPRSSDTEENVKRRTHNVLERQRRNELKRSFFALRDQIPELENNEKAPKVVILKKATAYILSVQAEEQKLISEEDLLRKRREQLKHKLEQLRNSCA

For orientation: IC50 means the concentration that gives 50% inhibition. Low values mean higher potency, high ones lower potency. Broadly, the clearance is the volume of plasma or blood freed of the substance per unit of time. A lower clearance goes with inefficient removal. For orientation: half-life means the time needed for the level to fall by half in the phase considered. Lower therefore signals fast loss. The term Cmax denotes the highest concentration seen after dosing. The term Tmax denotes the time at which the peak concentration occurs. For `CCOC(=O)[C@]1(n2cnc3c(N4CCCCC4)nc(F)nc32)CSC[C@H]1O` (racemic) [33a], the “apoptosis” value in the series with HCT116 cells [1] is “induced apoptosis in a dose-dependent manner”. Moreover, in the series with HCT116 cells [2], the invasion entry is recorded as “distinctly reduced the number of HCT116 cells passing through the matrix membrane”. Moreover, the “autophagy” value with HCT116 cells [3] is listed as “could inhibit autophagy in HCT116”. In [4], 0.57 ± 0.13 µM corresponded to half-maximal inhibition (IC50). In the series with HeLa cells, this compound showed an IC50 of 8.73 ± 1.02 µM. In [5], this compound yielded an IC50 of 21.1 ± 1.21 µM. Further, in the series “Pharmacokinetic analysis” (IV, 1 mg/kg), the clearance was determined as 5.1 mL/min/kg, the half-life was 5 h, the Vd is 2.15 L/kg and the AUC0-∞ is 3270 ng·h/mL. For the same compound, in “Pharmacokinetic analysis” (oral (i.g.), 2 mg/kg), the Cmax was 301 ng/mL, the Tmax came out at 4 h, the half-life was 6.8 h and the AUC0-∞ stood at 3310 ng·h/mL. Moreover, the wound healing result with HCT116 cells [6] is on record as “significantly delay the wound healing ability of HCT116 cells in a dose-dependent manner”. Further, the “protein levels of c-MYC, β-Catenin, MAX, P21” value in series [7] was “c-MYC, β-Catenin, and MAX were significantly decreased, whereas the expression of p21 increased significantly in a dose-dependent manner”. For the same compound, the “stability of c-MYC against proteolysis” value at c-MYC is given as “increase the stability of c-MYC in the process of protease hydrolysis”. This compound had an IC50 in [8] of 2.34 ± 0.12 µM.

What is called AUC(0-inf) is total exposure, with the tail of the curve extrapolated. With `CCCSc1nc(F)nc2c1ncn2[C@@]1(C(=O)OCC)CSC[C@@H]1O` (relative stereo) [36b], the “apoptosis” value in the series on HCT116 cells [1] was “induced apoptosis in a dose-dependent manner”. In the series with HCT116 cells [2], the invasion entry is listed as “distinctly reduced the number of HCT116 cells passing through the matrix membrane”. Moreover, the “autophagy” value with HCT116 cells [3] was “could up-regulate the protein levels of P62 but showed no obvious effect on LC3-II and Beclin1”. Further, the IC50 was 0.85 ± 0.09 µM in [4], 6.35 ± 1.08 µM in the series with HeLa cells, 6.59 ± 1.36 µM in series [5] and 1.14 ± 0.17 µM in [8]. In addition, the AUC(0-inf) came to 8800 ng·h/mL in “Pharmacokinetic analysis” (1 mg/kg, IV, 1 mg/kg) and 1800 ng·h/mL in “Pharmacokinetic analysis” (2 mg/kg, oral, 2 mg/kg). In the series “Pharmacokinetic analysis” (IV, 1 mg/kg), this compound had a clearance of 1.89 mL/min/kg. Moreover, the half-life in the series “Pharmacokinetic analysis” (IV, 1 mg/kg) is 4.9 h; in “Pharmacokinetic analysis” (oral (i.g.), 2 mg/kg), 4.1 h. Besides, in “Pharmacokinetic analysis” (IV, 1 mg/kg), the Vd worked out at 3.54 L/kg. This compound also had a Cmax in “Pharmacokinetic analysis” (oral (i.g.), 2 mg/kg) of 276 ng/mL. Further, in “Pharmacokinetic analysis” (oral (i.g.), 2 mg/kg), the Tmax was 4 h. The wound healing entry with HCT116 cells [6] was “significantly delay the wound healing ability of HCT116 cells in a dose-dependent manner”. In addition, the “protein levels of c-MYC, β-Catenin, MAX, P21” value in series [7] was “c-MYC, β-Catenin, and MAX were significantly decreased, whereas the expression of p21 increased significantly in a dose-dependent manner”. For the same compound, at c-MYC, the “stability of c-MYC against proteolysis” value is on record as “increase the stability of c-MYC in the process of protease hydrolysis”.
